According to patent publication US10351594B2, “Process for preparing compounds having triple activities of thrombolysis, antithrombosis, and radical scavenging” (Shanghai Lumosa Therapeutics Co., Ltd., priority 2013, dated 2019):
“Also recorded” adds a separate entry of the source. Marks after values point to notes of the source that are not given here.

Columns and labels:
[1] = tested on: formation of thrombus (rat arteriovenous bypass); assay: Antithrombotic activity via intravenous administration, rat arteriovenous bypass cannula with thread; format: in vivo, male SD rats; conditions: for wet weight of thrombus: n = 10
Excerpt: A cannula was composed of 3 segments. The middle segment has a length of 80 mm and an inner diameter of 3.5 mm. […] The pre-weighed, 60 mm in length thread was placed in the middle segment of the polyethylene tube. Both ends of the wider tube sheathed the un-narrowed ends of two polyethylene tubes respectively (0.5 mm of the thread was restrained by one of the segment to fix the thread). The cannula was filled with a heparin solution in normal saline (50 IU/kg) through the tip end by using an injector and was ready for use. 200-220 g male SD rats were anesthetized with 20% urethane solution (6 mL/kg, ip). Anesthetized rats were fixed in a supine position, and the left external jugular vein was separated and penetrated with a suture at the proximal and distal ends respectively, and the distal end was ligated. An incision was carefully made on the exposed left external jugular vein, and the tip end without thread-restraining of the bypass cannula prepared as described above was inserted into the proximal end of the open incision in the left external jugular vein. A precise amount of heparin in normal saline (50 IU/kg) was injected through the tip at the other end by using an injector. Then, the injector was replaced, and precise amount of drug was injected by the same way. At this moment, without removing the injector from the ethylene tube, the right common carotid artery was separated, and the proximal end was clipped by an artery clip. The right common carotid artery was penetrated with a suture at the proximal and distal ends respectively, and the distal end was ligated. An incision was carefully cut across the right common carotid artery near the artery clip. The injector was pulled out of the polyethylene tube through the tip, and the tip of the polyethylene tube was then inserted into the proximal end of the artery incision. Both ends of the bypass cannula were fixed to the artery or vein with #4 sutures. The artery clip was then removed to allow blood to flow from the artery to the vein through the bypass cannula. A rat arteriovenous bypass thrombolysis model was thus established. The process was timed from the beginning of circulation, the thread attached with thrombus was taken out from the bypass cannula after 15 minutes and accurately weighed. The difference in the mass of the thread before and after was determined as the wet weight of the thrombus, which was statistically analyzed and used to evaluate the in vivo antithrombotic activities of the compounds. The wet weight of the thrombus was expressed as average value and standard deviation (x±SD). The drug administration method is intravenous injection. The blank control was normal saline solution, and the dose was 1 mL/kg. The positive control was aspirin, and the dose was 9 mg/kg. The dose of compounds 5Aa-p of the present invention was 0.1 nmol/kg. The method was the same as in example 3. The drug administration method is intravenous injection. The blank control was normal saline solution, and the dose was 3 mL/kg. The positive control was aspirin, and the dose was 9 mg/kg.

[2] = Hydroxyl free radical scavenging activity (DMPO signal peak height); format: biochemical; conditions: n = 6; read-out: EC50 of scavenging •OH
Experimental: 11.316 mg DMPO ([…], Sigma) was dissolved in 1 mL of pure water to obtain 0.1 M DMPO solution. […] FeSO4.7H2O was dissolved in 1 mL of pure water to obtain 10 mM solution. 30% medical H2O2 was diluted to 0.2%.
The first peak height of the OH signal of 2.5 μL FeSO4.7H2O solution+2.5 μL DMPO solution+5 μL H2O2 solution+5 μL water was measured and repeated for 6 times. This peak height defined as the known peak height of OH signal. The first peak height of the OH signal of 2.5 μL FeSO4.7H2O solution+2.5 μL DMPO solution+5 μL H2O2 solution+5 μL solution of one of the compounds 5Aa-p was measured and repeated for 6 times. This peak height defined as the residual peak height of the OH signal scavenged by one of the compounds 5Aa-p. Scavenging ratio=(known peak height of OH signal−residual peak height of OH signal of compounds 5Aa-p)/known peak height of OH signal

[3] = Superoxide anionic radical scavenging activity (xanthine/xanthine oxidase, DMPO); format: biochemical; conditions: n = 6
Experimental: […] xanthine was dissolved in 1 mL of pure water to obtain 0.5 M xanthine solution (milk white color, largely insoluble). Commercially available raw solution of xanthine oxidase was diluted 10 folds to obtain solution of xanthine oxidase. Saturated DETAPAC solution was diluted 20 folds to obtain 0.9 mM solution. 11.316 mg DMPO was dissolved in 1 mL of pure water to obtain 0.1 M DMPO solution.
5 μL DMPO solution+5 μL DETAPAC solution+5 μL xanthine solution+5 μL xanthine oxidase solution+5 μL compounds 5Aa-p solution
The first peak height of superoxide anion signal of 5 μL DMPO solution+5 μL DETAPAC solution+5 μL xanthine solution+5 μL xanthine oxidase solution+5 μL water was measured and repeated for 6 times. This peak height defined as the known peak height of superoxide anion signal. The first peak height of superoxide anion signal of 5 μL DMPO solution+5 μL DETAPAC solution+5 μL xanthine solution+5 μL xanthine oxidase solution+5 μL solution of one of compounds 5Aa-p was measured and repeated for 6 times. This peak height defined as the residual peak height of the superoxide anion signal scavenged by one of the compounds 5Aa-p. Scavenging ratio=(known peak height of superoxide anion signal−residual peak height of superoxide anion signal of compounds 5Aa-p)/known peak height of superoxide anion signal

[4] = rat, 5Aa-p (i.v.) 0.1 nmol/kg, 15 minutes

| Molecule | EC50 [2] [µM] | EC50 [3] [µM] | wet weight of thrombus [1, 4] | wet weight of thrombus ([1]; Table 4, 5Ak 0.1 nmol/kg i.v.) | Antithrombotic activity, result in words ([1]; rat, intravenous, 5Ak 0.1 nmol/kg (dose-effect: 0.1, 0.01, 0.001 nmol/kg)) |
| --- | --- | --- | --- | --- | --- |
| 3S-6,7-dihydroxy-1,1-dimethyl-1,2,3,4-tetrahydro-isoquinoline-3-acyl-Lys(Pro-Ala-Ala) [Compound 5Aa] | 459 ± 66 | 477 ± 56 | 54.04 ± 6.43^a mg |  |  |
| 3S-6,7-dihydroxy-1,1-dimethyl-1,2,3,4-tetrahydro-isoquinoline-3-acyl-Lys(Pro-Ala-Gly) [Compound 5Ag] | 422 ± 61 | 467 ± 94 | 54.28 ± 3.57^a mg |  |  |
| 3S-6,7-dihydroxy-1,1-dimethyl-1,2,3,4-tetrahydro-isoquinoline-3-acyl-Lys(Pro-Ala-Val) [Compound 5Ab] | 471 ± 71 | 471 ± 34 | 54.17 ± 6.61^a mg |  |  |
| C[C@H](NC(=O)[C@@H]1CCCN1)C(=O)N[C@@H](Cc1ccc(O)cc1)C(=O)NCCCC[C@H](NC(=O)[C@@H]1Cc2cc(O)c(O)cc2C(C)(C)N1)C(=O)O [Compound 5Ad, 3S-6,7-dihydroxy-1,1-dimethyl-1,2,3,4-tetrahydro-isoquinoline-3-acyl-Lys(Pro-Ala-Tyr)] | 369 ± 32 | 354 ± 71 | 51.91 ± 4.97^a mg |  |  |
| C[C@H](NC(=O)[C@@H]1CCCN1)C(=O)N1CCC[C@H]1C(=O)NCCCC[C@H](NC(=O)[C@@H]1Cc2cc(O)c(O)cc2C(C)(C)N1)C(=O)O [Compound 5Ae, 3S-6,7-dihydroxy-1,1-dimethyl-1,2,3,4-tetrahydro-isoquinoline-3-acyl-Lys(Pro-Ala-Pro)] | 466 ± 47 | 481 ± 45 | 57.20 ± 6.43^a mg |  |  |
| C[C@H](NC(=O)[C@@H]1CCCN1)C(=O)N[C@@H](Cc1ccccc1)C(=O)NCCCC[C@H](NC(=O)[C@@H]1Cc2cc(O)c(O)cc2C(C)(C)N1)C(=O)O [Compound 5Af, 3S-6,7-dihydroxy-1,1-dimethyl-1,2,3,4-tetrahydro-isoquinoline-3-acyl-Lys(Pro-Ala-Phe)] | 544 ± 43 | 485 ± 31 | 54.01 ± 4.25^a mg |  |  |
| CC[C@H](C)[C@H](NC(=O)[C@H](C)NC(=O)[C@@H]1CCCN1)C(=O)NCCCC[C@H](NC(=O)[C@@H]1Cc2cc(O)c(O)cc2C(C)(C)N1)C(=O)O [Compound 5Ai, 3S-6,7-dihydroxy-1,1-dimethyl-1,2,3,4-tetrahydro-isoquinoline-3-acyl-Lys(Pro-Ala-Ile)] | 495 ± 61 | 452 ± 64 | 56.12 ± 5.55^a mg |  |  |
| C[C@H](NC(=O)[C@@H]1CCCN1)C(=O)N[C@@H](CCCCN)C(=O)NCCCC[C@H](NC(=O)[C@@H]1Cc2cc(O)c(O)cc2C(C)(C)N1)C(=O)O [Compound 5Ak, 3S-6,7-dihydroxy-1,1-dimethyl-1,2,3,4-tetrahydro-isoquinoline-3-acyl-Lys(Pro-Ala-Lys)] | 422 ± 82 | 363 ± 94 | 51.93 ± 2.74^a mg | 52.16 ± 2.02^a mg | effectively inhibit the formation of thrombus; also recorded: obvious dose-effect relationship |
| CC(C)C[C@H](NC(=O)[C@H](C)NC(=O)[C@@H]1CCCN1)C(=O)NCCCC[C@H](NC(=O)[C@@H]1Cc2cc(O)c(O)cc2C(C)(C)N1)C(=O)O [Compound 5Al, 3S-6,7-dihydroxy-1,1-dimethyl-1,2,3,4-tetrahydro-isoquinoline-3-acyl-Lys(Pro-Ala-Leu)] | 489 ± 32 | 414 ± 97 | 54.20 ± 3.93^a mg |  |  |
| C[C@H](NC(=O)[C@@H]1CCCN1)C(=O)N[C@@H](CCC(N)=O)C(=O)NCCCC[C@H](NC(=O)[C@@H]1Cc2cc(O)c(O)cc2C(C)(C)N1)C(=O)O [Compound 5Am, 3S-6,7-dihydroxy-1,1-dimethyl-1,2,3,4-tetrahydro-isoquinoline-3-acyl-Lys(Pro-Ala-Gln)] | 466 ± 77 | 371 ± 45 | 58.14 ± 2.30^a mg |  |  |
| C[C@H](NC(=O)[C@@H]1CCCN1)C(=O)N[C@@H](CC(N)=O)C(=O)NCCCC[C@H](NC(=O)[C@@H]1Cc2cc(O)c(O)cc2C(C)(C)N1)C(=O)O [Compound 5An, 3S-6,7-dihydroxy-1,1-dimethyl-1,2,3,4-tetrahydro-isoquinoline-3-acyl-Lys(Pro-Ala-Asn)] | 572 ± 72 | 383 ± 94 | 55.11 ± 4.76^a mg |  |  |

The next lines start with results.

| EC50 [2] [µM] | EC50 [3] [µM] | Molecule | wet weight of thrombus [1, 4] | wet weight of thrombus ([1]; Table 4, 5Ak 0.1 nmol/kg i.v.) | Antithrombotic activity, result in words ([1]; rat, intravenous, 5Ak 0.1 nmol/kg (dose-effect: 0.1, 0.01, 0.001 nmol/kg)) |
| --- | --- | --- | --- | --- | --- |
| 378 ± 85 | 366 ± 71 | C[C@H](NC(=O)[C@@H]1CCCN1)C(=O)N[C@@H](Cc1c[nH]c2ccccc12)C(=O)NCCCC[C@H](NC(=O)[C@@H]1Cc2cc(O)c(O)cc2C(C)(C)N1)C(=O)O [Compound 5Ac, 3S-6,7-dihydroxy-1,1-dimethyl-1,2,3,4-tetrahydro-isoquinoline-3-acyl-Lys(Pro-Ala-Trp)] | 52.93 ± 3.96^a mg |  |  |
| 413 ± 73 | 401 ± 72 | C[C@H](NC(=O)[C@@H]1CCCN1)C(=O)N[C@@H](CO)C(=O)NCCCC[C@H](NC(=O)[C@@H]1Cc2cc(O)c(O)cc2C(C)(C)N1)C(=O)O [Compound 5Ah, 3S-6,7-dihydroxy-1,1-dimethyl-1,2,3,4-tetrahydro-isoquinoline-3-acyl-Lys(Pro-Ala-Ser)] | 50.67 ± 3.71^a mg |  |  |
| 416 ± 28 | 417 ± 95 | C[C@H](NC(=O)[C@@H]1CCCN1)C(=O)N[C@H](C(=O)NCCCC[C@H](NC(=O)[C@@H]1Cc2cc(O)c(O)cc2C(C)(C)N1)C(=O)O)[C@@H](C)O [Compound 5Aj, 3S-6,7-dihydroxy-1,1-dimethyl-1,2,3,4-tetrahydro-isoquinoline-3-acyl-Lys(Pro-Ala-Thr)] | 50.56 ± 3.96^a mg |  |  |
| 396 ± 48 | 435 ± 65 | C[C@H](NC(=O)[C@@H]1CCCN1)C(=O)N[C@@H](CC(=O)O)C(=O)NCCCC[C@H](NC(=O)[C@@H]1Cc2cc(O)c(O)cc2C(C)(C)N1)C(=O)O [Compound 5Ao, 3S-6,7-dihydroxy-1,1-dimethyl-1,2,3,4-tetrahydro-isoquinoline-3-acyl-Lys(Pro-Ala-Asp)] | 48.34 ± 3.29^a mg |  |  |
| 400 ± 51 | 420 ± 73 | C[C@H](NC(=O)[C@@H]1CCCN1)C(=O)N[C@@H](CCC(=O)O)C(=O)NCCCC[C@H](NC(=O)[C@@H]1Cc2cc(O)c(O)cc2C(C)(C)N1)C(=O)O [Compound 5Ap, 3S-6,7-dihydroxy-1,1-dimethyl-1,2,3,4-tetrahydro-isoquinoline-3-acyl-Lys(Pro-Ala-Glu)] | 49.97 ± 6.32^a mg |  |  |
